# Experimental data published in patent US7803801B2, “Aminopyridine compounds having Syk inhibitory activity” (Japan Tobacco, Inc., priority 2005, dated 2010).
# Where a name gives a salt, the structure may show the parent alone.
# System: cultured human mast cells
# Experiment: Degranulation inhibition test using cultured human mast cells (IgE cross-linking, β-Hexosaminidase release)
# Type: cell-based
# Details: Mast cell; Tables 1-x, compounds A; cultured human mast cells; read-out: human degranulation ave. IC50
# Description: Degranulation Inhibition Test Using Cultured Human Mast Cells
# (1) Separation of Hematopoietic Stem Cells;
# After 10 to 60 mL of umbilical cord blood collected with heparin was diluted with an equivalent amount of buffer (0.5% BSA, 2 mM EDTA/PBS-), it was superposed on Ficoll-Paque (Amersham Pharmacia Biotech) (Ficoll/Blood (1:2)) and mononuclear leukocyte fraction was collected by centrifuging it at 400 G (1350 rpm) 4° C. for 30 minutes. After centrifugal washing (1500 rpm, 5 min, 4° C.×3) with buffer, the number of cells was counted and 0.1 mL of CD34 Progenitor Cell Isolation Kit (Miltenyi Biotec), Reagent A1 (Fc blocking) was added for 1×10^8 cells. After agitation, 0.1 mL of Reagent A2 (CD34 antibody-hapten) was added (final volume 0.5 mL/1×10^8 cells) and incubated at 9° C. for further 15 minutes after agitation. After centrifugal washing (1500 rpm, 5 min, 4° C.×3), it was resuspeded in a buffer (0.4 mL) and 0.1 mL of Reagent B (anti hapten antibody-microbeads) was added and agitated (final volume 0.5 mL/1×10^8 cells) and incubated at 9° C. for further 15 minutes. After centrifugal washing (1500 rpm, 5 min, 4° C.×2), it was resuspeded in a buffer (0.5 mL) and loaded on CS column (Miltenyi Biotec) set in MACS (MAgnetic Cell Sorting system; Miltenyi Biotec, Daiichi Pure Chemicals) and washed with 30 mL of buffer to remove CD34^− cells. The column was separated from MACS and eluted with 30 mL of buffer and CD34^+ cells bound to the column were collected and used as a hematopoietic stem cell population.
# (2) Acquisition of Human Mast Cells by Long-Term Culturing of Hematopoietic Stem Cells;
# The CD34^+ cells separated in (1) were resuspended in Iscove's Modified Dulbecco's Medium (IMDM, Gibco) containing human (rh)SCF (1 μg/mL, Peprotech), rhIL-6 (0.5 μg/mL, Peprotech), rhIL-3 (10 ng/mL, Peprotech), 1% Insulin-Transferrin (Gibco), 5×10^−5M 2-ME (Gibco), 0.1% BSA (Sigma) in a density of 1×10^6 cells/ml and disseminated on 24-well culture plate with a dose of 0.1 mL/well and 0.9 ml of IMDM (Methocult SF^BIT StemCell technology) containing 0.9% methyl cellulose was added and culturing was started. The above culture medium (excluding methyl cellulose) was added in a week and after that 100 μL/well of the above culture medium (further excluding IL-3) was added at an interval of every once a week so that cells were diluted to maintain 10^5 cells/mL/well order and cultured more than about 8 weeks and thereby human culture mast cells were obtained.
# (3) Expression Enhancement of FcεRI and Inhibition Test IgE Cross-Linking Stimulating Degranulation;
# rhIL-4 (final concentration 1 ng/mL, R & D) and Homo sapiens(h) IgE (final concentration 0.5 μg/mL, CHEMICON) were added to the obtained human culture mast cells, and they were incubated for 5 days to enhance the expression of FcεRI. After incubation, cells were collected and, after centrifugal washing (IMDM), they were disseminated on 96-well culture plate in 5×10^4 cells/80 μL/well.
# 10 μL of a compound 10-fold diluted with IMDM after dissolved in DMSO (DMSO final concentration 0.1%) was added and reacted at 37° C. for 10 minutes. Further, 10 μL of anti-hIgE Ab (CHEMICON) adjusted to 100 μg/mL (final concentration 10 μg/mL) was added and degranulation was caused by being stimulated at 37° C. for 30 minutes. After centrifugation, 50 μL/well of the supernatant was collected and stored at −40° C. untill the quantity of degranulation was measured. The measurement of quantity of degranulation was performed using enzymatic activity of β-Hexosaminidase contained in the granulates as an index. That is, an equivalent amount of p-nitrophenyl-N-acetyl-β-D-glucosaminide (1 mM) (containing 0.1% Triton X-100) which is a substrate of β-Hexosaminidase was added to 50 μL of the culture filtrate, and after reacted at 37° C. for 2 hours, the reaction was terminated by using 100 μL of Carbonate buffer (0.1M, pH 10). […]
row,SMILES,IC50 [nM]
1,"Cc1ccnc(Nc2cccc(-c3cnc(N4CCN(CC(N)=O)C(=O)C4)s3)n2)c1 [Compound A-465, 2-(4-{5-[6-(4-methylpyridin-2-ylamino)pyridin-2-yl]thiazol-2-yl}-2-oxopiperazin-1-yl)acetamide]",100 to 1000

# Same assay, conditions: Mast cell; Tables 2-x, thiophene compounds B; cultured human mast cells; read-out: human degranulation ave. IC50
row,SMILES,IC50 [nM]
1,"CC(O)c1ccc(-c2cccc(Nc3cc(CCO)ccn3)n2)s1 (stereo not drawn) [Compound B-55, 1-(5-{6-[4-(2-hydroxyethyl)pyridin-2-ylamino]pyridin-2-yl}thiophen-2-yl)ethanol]",100 to 1000

# Same assay, conditions: Mast cell; cultured human mast cells, anti-hIgE stimulation, β-Hexosaminidase index, average; read-out: human degranulation ave. IC50
row,SMILES,IC50 [nM]
1,Cc1ccnc(Nc2cccc(-c3cnc(CCNC(=O)CO)s3)n2)c1 [Compound A-257],100 to 1000
2,Cc1ccnc(Nc2cccc(-c3cnc(COCC(=O)N4CCC(O)CC4)s3)n2)c1 [Compound A-369],> 1000
3,Cc1ccnc(Nc2cccc(-c3cnc(CCCC(=O)O)s3)n2)c1 [Compound A-131],> 1000
4,CC(=O)Nc1ncc(-c2cccc(Nc3cc(C)ccn3)n2)s1 [Compound A-23],100 to 1000

# Target: GST-Syk Full Protein (human) (Homo sapiens, UniProt P43405)
# Experiment: Syk kinase inhibition test (HTRF method)
# Type: biochemical
# Details: HTRF, 100 μM ATP, 30 min room temperature, average; read-out: sykHTRF ave IC50
# Method in brief: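 Human GST-Syk full-length (6.4 nM) phosphorylated biotin-EDPDYEWPSA-NH2 (250 nM) with 100 μM ATP in HEPES pH 7.0/MgCl2 buffer, 2% DMSO, 30 min at room temperature. EDTA stop, then HTRF detection (streptavidin-XL665, Eu anti-phosphotyrosine) after 1 h; 665/620 ratio read.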
row,SMILES,IC50 [nM]
1,Cc1ccnc(Nc2cccc(-c3cnc(CCCC(=O)O)s3)n2)c1 [Compound A-131],100 to 1000
2,CCOC(=O)c1nc([C@H](C)NC(=O)OC(C)(C)C)sc1-c1cccc(Nc2cc(C)ccn2)n1 [Compound A-100],> 1000

# Results, then the compound that gave them:
row,IC50 [nM],SMILES
1,100 to 1000,Cc1ccnc(Nc2cccc(-c3cnc(CCNC(=O)CO)s3)n2)c1 [Compound A-257]
2,100 to 1000,Cc1ccnc(Nc2cccc(-c3cnc(COCC(=O)N4CCC(O)CC4)s3)n2)c1 [Compound A-369]

# Same assay, conditions: Tables 1-x, compounds A; read-out: sykHTRF ave IC50
row,SMILES,IC50 [nM]
1,"Cc1ccnc(Nc2cccc(-c3cnc(N4CCN(CC(N)=O)C(=O)C4)s3)n2)c1 [Compound A-465, 2-(4-{5-[6-(4-methylpyridin-2-ylamino)pyridin-2-yl]thiazol-2-yl}-2-oxopiperazin-1-yl)acetamide]",< 100
2,"Cc1ccnc(Nc2cccc(-c3cnc(N4CCCC(CCC(=O)O)C4)s3)n2)c1 (stereo not drawn) [Compound A-704, 3-(1-{5-[6-(4-methylpyridin-2-ylamino)pyridin-2-yl]thiazol-2-yl}piperidin-3-yl)propionic acid]",< 100
3,"Cc1ccnc(Nc2cccc(-c3cnc(COCC(=O)O)s3)n2)c1 [Compound A-615, {5-[6-(4-methylpyridin-2-ylamino)pyridin-2-yl]thiazol-2-ylmethoxy}acetic acid hydrochloride]",< 100
4,"Cc1ccnc(Nc2cccc(-c3cnc(N4CCC(CC(=O)O)CC4)s3)n2)c1 [Compound A-653, (1-{5-[6-(4-methylpyridin-2-ylamino)pyridin-2-yl]thiazol-2-yl}piperidin-4-yl)acetic acid]",< 100
5,CNC(=O)[C@@H]1CCCN1Cc1ncc(-c2cccc(Nc3cc(C)ccn3)n2)s1 [Compound A-666],100 to 1000
6,Cc1ccnc(Nc2cccc(-c3cnc(N(C)C4CCN(C(=O)C(C)(C)C)CC4)s3)n2)c1 [Compound A-671],100 to 1000
7,Cc1ccnc(Nc2cccc(-c3cnc(N(C)C4CCN(C(=O)N5CCC(O)CC5)CC4)s3)n2)c1 [Compound A-703],100 to 1000
8,"Cc1ccnc(Nc2cccc(-c3cnc(N(C[C@H]4CC[C@H](C(=O)O)CC4)C(C)C)s3)n2)c1 [Compound A-626, trans-4-[(N-isopropyl-N-{5-[6-(4-methylpyridin-2-ylamino)pyridin-2-yl]thiazol-2-yl}amino)methyl]cyclohexanecarboxylic acid]",< 100
9,Cc1ccnc(Nc2cccc(-c3cnc(NCCc4ccccc4)s3)n2)c1 [Compound A-701],100 to 1000
10,COC(=O)N(CCC(=O)O)Cc1ncc(-c2cccc(Nc3cc(C)ccn3)n2)s1 [Compound A-584],100 to 1000
11,Cc1ccnc(Nc2cccc(-c3cnc(N(Cc4ccccc4)[C@H]4CC[C@@H](CC(=O)O)CC4)s3)n2)c1 [Compound A-625],100 to 1000

# Now from value to compound:
row,IC50 [nM],SMILES
1,100 to 1000,O=C(O)CCC1CCN(c2ncc(-c3cccc(Nc4ccccn4)n3)s2)CC1 [Compound A-682]
2,< 100,"Cc1ccnc(Nc2cccc(-c3cnc(NCCN4CCOCC4)s3)n2)c1 [Compound A-695, N-{5-[6-(4-methylpyridin-2-ylamino)pyridin-2-yl]thiazol-2-yl}-N-(2-morpholin-4-ylethyl)amine]"
3,< 100,"Cc1ccnc(Nc2cccc(-c3cnc(CN(C)C(C)(C)C(N)=O)s3)n2)c1 [Compound A-720, 2-methyl-2-(N-methyl-N-{5-[6-(4-methylpyridin-2-ylamino)pyridin-2-yl]thiazol-2-ylmethyl}amino)propionamide]"
4,< 100,"Cc1ccnc(Nc2cccc(-c3cnc(N4CCC(C(=O)N5CCNC(=O)C5)CC4)s3)n2)c1 [Compound A-453, 4-(1-{5-[6-(4-methylpyridin-2-ylamino)pyridin-2-yl]thiazol-2-yl}piperidine-4-carbonyl)piperazin-2-one]"
5,< 100,"Cc1ccnc(Nc2cccc(-c3cnc(N(C)C4CCN(C(=O)NCCO)CC4)s3)n2)c1 [Compound A-705, N-(2-hydroxyethyl)-4-(N′-methyl-N′-{5-[6-(4-methylpyridin-2-ylamino)pyridin-2-yl]thiazol-2-yl}amino)piperidine-1-carboxamide]"
6,< 100,"Cc1ccnc(Nc2cccc(-c3cnc(N(CCCCCO)C(C)C)s3)n2)c1 [Compound A-678, 5-(N-isopropyl-N-{5-[6-(4-methylpyridin-2-ylamino)pyridin-2-yl]thiazol-2-yl}amino)pentan-1-ol]"
7,100 to 1000,Cc1ccnc(Nc2cccc(-c3cnc(N4CCCc5ccc(C(=O)O)cc54)s3)n2)c1 [Compound A-621]
8,100 to 1000,Cc1ccnc(Nc2cccc(-c3cnc(N(C)C4CCN(C(=O)NC5CCCCC5)CC4)s3)n2)c1 [Compound A-696]
9,100 to 1000,Cc1ccnc(Nc2cccc(-c3cnc(N(C)C4CCN(C(=O)C5CC5)CC4)s3)n2)c1 [Compound A-512]
10,100 to 1000,Cc1ccnc(Nc2cccc(-c3cnc(CN4CCC[C@H]4C(=O)N(C)C)s3)n2)c1 [Compound A-664]
11,< 100,"CN(c1ncc(-c2cccc(Nc3cc(C(F)(F)F)ccn3)n2)s1)C(C)(C)c1ccc(C(=O)O)cc1 [Compound A-654, 4-[1-methyl-1-(N-methyl-N-{5-[6-(4-trifluoromethylpyridin-2-ylamino)pyridin-2-yl]thiazol-2-yl}amino)ethyl]benzoic acid]"

# Same assay, conditions: Tables 2-x, thiophene compounds B; read-out: sykHTRK ave IC50
row,SMILES,IC50 [nM]
1,"CC(O)c1ccc(-c2cccc(Nc3cc(CCO)ccn3)n2)s1 (stereo not drawn) [Compound B-55, 1-(5-{6-[4-(2-hydroxyethyl)pyridin-2-ylamino]pyridin-2-yl}thiophen-2-yl)ethanol]",< 100
2,Cc1ccnc(Nc2cccc(-c3ccc(CNC[C@H]4CC[C@H](C(=O)O)CC4)s3)n2)c1 [Compound B-118],100 to 1000
3,"Cc1ccnc(Nc2cccc(-c3ccc(C(O)C(F)(F)C(=O)O)s3)n2)c1 (stereo not drawn) [Compound B-109, 2,2-difluoro-3-hydroxy-3-{5-[6-(4-methylpyridin-2-ylamino)pyridin-2-yl]thiophen-2-yl}propionic acid]",< 100
4,Cc1ccnc(Nc2cccc(-c3ccc(CN(C)C(=O)[C@H]4CC[C@H](C(=O)O)CC4)s3)n2)c1 [Compound B-123],100 to 1000

# Other lines, results leading:
row,IC50 [nM],SMILES
1,100 to 1000,Cc1ccnc(Nc2cccc(-c3ccc(C(=O)N4CCC(CC(=O)O)CC4)s3)n2)c1 [Compound B-113]
2,< 100,"CC(=O)N(Cc1ccc(C(=O)O)cc1)Cc1ccc(-c2cccc(Nc3cc(C)ccn3)n2)s1 [Compound B-119, 4-[(N-acetyl-N-{5-[6-(4-methylpyridin-2-ylamino)pyridin-2-yl]thiophen-2-ylmethyl}amino)methyl]benzoic acid]"
3,> 1000,CC(=O)c1ccc(-c2cccc(N(C(C)=O)c3cc(C)ccn3)n2)s1 [Compound B-89]
